Test results: patent publication US20240150365A1 (Hotspot Therapeutics, Inc., priority 2022, published 2024)

What was measured:
NF-kB = NF-kB reporter assay in Jurkat cells stimulated with aCD3/aCD28/PMA; format: cell-based; conditions: Homo sapiens, Jurkat, Jurkat cells, 1 hr compound incubation, aCD3/aCD28/PMA stimulation 4 hr, One-Glo readout; read-out: NF-kB Reporter Assay IC50
Procedure: Jurkat cells were maintained in complete RPMI 1640 media supplemented with 10% FBS. Prior to the assay, 120 nL of the serial diluted compound was added in each well of 384-well flat bottom white plate (Corning #3570) by using liquid handler Echo550. Jurkat cells were harvested by centrifugation at 120 g for 10 min and resuspended in fresh RPMI 1640 media without serum. 30 μL of cells (25,000 cells) were seeded in each well of 384-well plate containing compound. After 1 hr incubation at 37° C. in a 5% CO2 incubator, 10 μL of diluted aCD3/aCD28/PMA (final concentration at 5 μg/mL, 5 μg/mL and 0.03 μg/mL, respectively) in RPMI 1640 without serum were added to each well. After incubation at 37° C. in 5% CO2 for 4 hr, 30 μL of One-Glo reagent (Promega #E6120) was added into each well. The plate was left at room temperature for 5 min and the signal was measured on EnVision (PerkinElmer).
Compounds in which an IC50 was not measured are designated as “N/A”.

MALT1 = target: T1, MALT1 (Homo sapiens, UniProt Q9UDY8); experiment: MALT-1 Fluorogenic Peptide Cleavage Assay (MALT1 inhibition assay); format: biochemical; conditions: Avi-tagged FL MALT-1, Ac-LRSR-AMC peptide substrate, 30 min pre-incubation, 90 min reaction
T1 construct: Avi-tagged FL MALT-1 (Pharmaron, stored at −70° C.); Avi tag
T1 sequence (Q9UDY8 1-824): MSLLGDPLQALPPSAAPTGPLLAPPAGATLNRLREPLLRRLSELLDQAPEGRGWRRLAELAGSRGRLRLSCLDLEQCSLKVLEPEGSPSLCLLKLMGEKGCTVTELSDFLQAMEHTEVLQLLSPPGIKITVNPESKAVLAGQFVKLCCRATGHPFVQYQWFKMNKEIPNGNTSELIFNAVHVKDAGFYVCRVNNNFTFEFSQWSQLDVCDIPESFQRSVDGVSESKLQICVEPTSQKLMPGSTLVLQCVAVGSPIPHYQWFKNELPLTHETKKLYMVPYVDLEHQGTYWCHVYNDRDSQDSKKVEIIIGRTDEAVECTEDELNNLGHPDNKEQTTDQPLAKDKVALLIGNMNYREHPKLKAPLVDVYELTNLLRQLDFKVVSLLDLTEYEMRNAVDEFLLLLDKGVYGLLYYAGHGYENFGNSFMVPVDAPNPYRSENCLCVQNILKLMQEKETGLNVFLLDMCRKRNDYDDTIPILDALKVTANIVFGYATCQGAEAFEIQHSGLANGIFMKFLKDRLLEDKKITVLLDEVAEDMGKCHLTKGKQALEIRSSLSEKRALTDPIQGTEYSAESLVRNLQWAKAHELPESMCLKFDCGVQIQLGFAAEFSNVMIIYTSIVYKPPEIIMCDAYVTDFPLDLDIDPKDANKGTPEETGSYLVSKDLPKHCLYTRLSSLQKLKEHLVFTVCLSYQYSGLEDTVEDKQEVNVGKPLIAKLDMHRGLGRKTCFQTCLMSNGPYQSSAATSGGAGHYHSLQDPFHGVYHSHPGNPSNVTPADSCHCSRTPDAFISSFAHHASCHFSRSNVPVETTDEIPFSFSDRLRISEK
Procedure: Inhibition of MALT1 activity by the presence of small molecules was evaluated using MALT-1 Fluorogenic Peptide Cleavage Assay. The assay utilizes a quenched AMC-labelled peptide that contains the MALT-1 recognition sequence and cleavage site (LRSR). MALT-1 mediated cleavage of the peptide relieves the quenching and leads to an increase in fluorescence at excitation (342 nm) and emission (441 nm). The following reagents were obtained commercially and used to prepare standard reagent formulations as further described below: […] The standard reagent formulations used in this assay were prepared and stored as follows. A 1.1 M solution of sodium citrate (161.3 g, 500 mL) was prepared and stored at room temperature. A 10% (w/v) CHAPS solution (2.0 g, 20 mL) was prepared and stored at 4° C. A 500 mM HEPES solution having pH of 6.89 was prepared from 200 mL of a 1 M HEPES solution having a pH of 7.5 using concentrated hydrochloric acid and brought to a final volume of 400 mL with […]® H2O. The substrate, 10 mM Ac-LRSR-AMC Peptide, was prepared (10 mg, 1.370 mL DMSO) and stored at -20° C. Compounds were plated to provide a 2% DMSO final concentration using a ProxiPlate-384 Plus F Black 384-shallow well microplate. The assay-ready plates were equilibrated to room temperature. […] DMSO was added only when compound plates had not been DMSO-backfilled to 2%. MALT-1 was thawed and kept on ice. Peptide substrate was thawed on the bench under ambient conditions. A MALT-1 enzyme working stock was prepared from Avi-tagged FL MALT-1 (40 nM in a prepared reagent volume of 16.5 μL) and the reaction buffer (13.0 mL). MALT1 working stock (5 μL) was added to each well of the microplate. MALT-1 was pre-incubated with compounds for 30 minutes at room temperature. […] The plates were covered and incubated on the bench at room temperature for 90 minutes. Fluorescence intensity was determined using a CLARIOstar microplate reader (BMG LABTECH) using the optimised AMC mode. Before taking readings, a 70% gain was applied on the neutral control well. Compound data were normalised to % Inhibition and used to plot sigmoidal concentration response curves to yield various parameters including IC50. […] Compounds in which an IC50 was not measured are designated as “N/A”.

Compound	IC50 (NF-kB) [nM]	IC50 (MALT1) [nM]
Cn1cc2ccc(Cl)c(NS(=O)(=O)c3ccc(-n4cc(C(F)(F)F)cn4)nc3)c2n1 [Example I-25, N-(6-Chloro-2-Methyl-2H-Indazol-7-yl)-6-(4-(Trifluoromethyl)-1H-Pyrazol-1-yl)Pyridine-3-Sulfonamide]	> 2500	1000 to 2500
COc1ccc2cnn(C)c2c1NS(=O)(=O)c1ccc(-n2ncc(C(F)(F)F)n2)nc1 [Example I-28, N-(6-Methoxy-1-Methyl-1H-Indazol-7-yl)-6-(4-(Trifluoromethyl)-2H-1,2,3-Triazol-2-yl)Pyridine-3-Sulfonamide]	< 400	400 to 1000
COc1ccc2cnn(C)c2c1NS(=O)(=O)c1ccc(-n2cc(C(F)(F)F)nn2)nc1 [Example I-29, N-(6-Methoxy-1-Methyl-1H-Indazol-7-yl)-6-(4-(Trifluoromethyl)-1H-1,2,3-Triazol-1-yl)Pyridine-3-Sulfonamide]	< 400	< 400
COc1ccc2cnn(C)c2c1NS(=O)(=O)c1ccc(-n2cc(C(C)C)cn2)nc1 [Example I-32, 6-(4-Isopropyl-1H-Pyrazol-1-yl)-N-(6-Methoxy-1-Methyl-1H-Indazol-7-yl)Pyridine-3-Sulfonamide]	< 400	< 400
CCc1ccc2cnn(C)c2c1NS(=O)(=O)c1ccc(-n2ccc(C)n2)nc1 [Example I-33, N-(6-Ethyl-1-Methyl-1H-Indazol-7-yl)-6-(3-Methyl-1H-Pyrazol-1-yl)Pyridine-3-Sulfonamide]	< 400	< 400
COc1cnn(-c2ccc(S(=O)(=O)Nc3cccc4cnn(C)c34)cn2)c1 [Example I-35, 6-(4-Methoxy-1H-Pyrazol-1-yl)-N-(1-Methyl-1H-Indazol-7-yl)Pyridine-3-Sulfonamide]	< 400	> 2500
CC(C)c1ccn(-c2ccc(S(=O)(=O)Nc3cccc4cnn(C)c34)cn2)n1 [Example I-36, 6-(3-Isopropyl-1H-Pyrazol-1-yl)-N-(1-Methyl-1H-Indazol-7-yl)Pyridine-3-Sulfonamide]	< 400	> 2500
Cc1cc(C)n(-c2ccc(S(=O)(=O)Nc3cccc4cnn(C)c34)cn2)n1 [Example I-40, 6-(3,5-Dimethyl-1H-Pyrazol-1-yl)-N-(1-Methyl-1H-Indazol-7-yl)Pyridine-3-Sulfonamide]	< 400	> 2500
Cc1nn(-c2ccc(S(=O)(=O)Nc3cccc4cnn(C)c34)cn2)c(C)c1Cl [Example I-42, 6-(4-Chloro-3,5-Dimethyl-1H-Pyrazol-1-yl)-N-(1-Methyl-1H-Indazol-7-yl) Pyridine-3-Sulfonamide]	< 400	> 2500
Cc1cc(C(F)(F)F)nn1-c1ccc(S(=O)(=O)Nc2cccc3cnn(C)c23)cn1 [Example I-43, 6-[5-Methyl-3-(Trifluoromethyl)Pyrazol-1-Yl]-N-(1-Methylindazol-7-yl)Pyridine-3-Sulfonamide]	< 400	1000 to 2500
COc1ccc2cnn(C)c2c1N(C)S(=O)(=O)c1ccc(-c2cc(C(F)(F)F)n[nH]2)nc1 [Example I-48, N-(6-Methoxy-1-Methyl-1H-Indazol-7-yl)-N-Methyl-6-(3-(Trifluoromethyl)-1H-Pyrazol-5-yl)Pyridine-3-Sulfonamide]	< 400	< 400

More lines, now with the values ahead:

IC50 (NF-kB) [nM]	IC50 (MALT1) [nM]	Compound
> 2500	< 400	CCc1ccc2cn(C)nc2c1NS(=O)(=O)c1ccc(-n2cc(C(F)(F)F)cn2)nc1 [Example I-26, N-(6-Ethyl-2-Methylindazol-7-yl)-6-[4-(Trifluoromethyl)Pyrazol-1-yl]pyridine-3-Sulfonamide]
1000 to 2500	< 400	COc1ccc2cn(C)nc2c1NS(=O)(=O)c1ccc(-n2cc(C(F)(F)F)cn2)nc1 [Example I-27, N-(6-Methoxy-2-Methylindazol-7-yl)-6-[4-(Trifluoromethyl)Pyrazol-1-yl]pyridine-3-Sulfonamide]
< 400	< 400	COc1ccc2cnn(C)c2c1N(C)S(=O)(=O)c1ccc(-n2ccc(C(F)(F)F)n2)nc1 [Example I-30, N-(6-Methoxy-1-Methylindazol-7-yl)-N-Methyl-6-[3-(Trifluoromethyl) Pyrazol-1-yl] Pyridine-3-Sulfonamide]
< 400	< 400	Cc1ccc2cnn(C)c2c1NS(=O)(=O)c1ccc(-n2cc(C(F)(F)F)cn2)nc1 [Example I-31, N-(1,6-Dimethyl-1H-Indazol-7-yl)-6-(4-(Trifluoromethyl)-1H-Pyrazol-1-yl)Pyridine-3-Sulfonamide]
400 to 1000	< 400	Cc1ccn(-c2ccc(S(=O)(=O)Nc3c(C)ccc4cnn(C)c34)cn2)n1 [Example I-34, N-(1,6-dimethyl-1H-indazol-7-yl)-6-(3-methyl-1H-pyrazol-1-yl)pyridine-3-sulfonamide]
1000 to 2500	> 2500	Cc1ncn(-c2ccc(S(=O)(=O)Nc3cccc4cnn(C)c34)cn2)n1 [Example I-37, 6-(3-Methyl-1H-1,2,4-Triazol-1-yl)-N-(1-Methyl-1H-Indazol-7-yl)Pyridine-3-Sulfonamide]
< 400	1000 to 2500	Cn1ncc2cccc(NS(=O)(=O)c3ccc(-n4cc(F)cn4)nc3)c21 [Example I-38, 6-(4-Fluoro-1H-Pyrazol-1-yl)-N-(1-Methyl-1H-Indazol-7-yl) Pyridine-3-Sulfonamide]
400 to 1000	> 2500	Cn1ncc2cccc(NS(=O)(=O)c3ccc(-n4cc(C#N)cn4)nc3)c21 [Example I-39, 6-(4-Cyano-1H-Pyrazol-1-yl)-N-(1-Methyl-1H-Indazol-7-yl)Pyridine-3-Sulfonamide]
400 to 1000	< 400	Cn1ncc2cccc(NS(=O)(=O)c3ccc(-n4cc([N+](=O)[O-])cn4)nc3)c21 [Example I-41, N-(1-Methylindazol-7-yl)-6-(4-Nitropyrazol-1-yl)Pyridine-3-Sulfonamide]
< 400	400 to 1000	Cc1cn(-c2ccc(S(=O)(=O)Nc3cccc4cnn(C)c34)cn2)nc1C(F)(F)F [Example I-44, 6-[4-Methyl-3-(Trifluoromethyl)Pyrazol-1-Yl]-N-(1-Methylindazol-7-yl)Pyridine-3-Sulfonamide]
< 400	< 400	COc1ccc2cnn(C)c2c1NS(=O)(=O)c1ccc(-c2cc(C(F)(F)F)n(C)n2)nc1 [Example I-49, N-(6-Methoxy-1-Methyl-1H-Indazol-7-yl)-6-(1-Methyl-5-(Trifluoromethyl)-1H-Pyrazol-3-yl)Pyridine-3-Sulfonamide]
